A short description of data set [1]: Plasma protein binding (human). Format: in vitro ADME. Conditions: pH 7.4, read-out: PPB human (converted). As to the method: 0.3% DMSO - ΔRatio of 1 µM control compound)x100
In vitro Plasma protein binding and Brain homogenate binding: Determination of fraction unbound (f u) in plasma was conducted in vitro via equilibrium dialysis using HTDialysis (HTD) membrane plates. The top half of the plate was filled with 100 uL of Dubelco’s Phosphate Buffered Saline, pH 7.4 (DPBS). Compounds were diluted into plasma from each species (5 µM final concentration), which was aliquoted in triplicate to the ‘bottom half’ of the prepared HTD plate wells. The HTD plate was sealed and incubated for 6 hours at 37 °C. Following incubation, each well (both top and bottom halves) were transferred (20 µL) to the corresponding wells of a 96-shallow-well (V-bottom) plate. The daughter plates were then matrix-matched (DPBS side wells received equal volume of plasma, and plasma side wells received equal volume of DPBS), and extraction solution (120 µL; acetonitrile containing 50 nM carbamazepine as IS) was added to all wells of both daughter plates to precipitate protein and extract test article. The plates were then sealed and centrifuged (3500 rcf) for 10 minutes at ambient temperature. Supernatant (60 µL) from each well of the daughter plates was then transferred to the corresponding wells of new daughter plates (96-shallow-well, V bottom) containing water (Milli-Q, 60 µL/well), and the plates were sealed in preparation for LC-MS/MS analysis (see LC-MS/MS analysis method below).
The unbound fraction (f u) was calculated following the equation below, and mean values for each species were calculated from 3 replicates. A similar approach was used to determine the degree of brain homogenate binding, which employed the same methodology and procedure with the following modifications: 1) a final compound concentration of 1 μM was used, 2) naïve rat brains were homogenized in DPBS (1:3 composition of brain: DPBS, w/w) using a Mini-Bead Beater™ machine in order to obtain brain homogenate, which was then treated in the same manner as the plasma samples in the previously described plasma protein binding assay. Fraction unbound for both plasma and brain samples was determined using Equation 4.

The next data set is described as follows: Aqueous solubility. In kind it is physicochemical.
Data set [2] is described as follows: Rat IV:PBL PK cassette study / in vivo rat clearance. The settings on record: male, Sprague-Dawley, 0.2 mg/kg.
Data set [3] in a line: Mouse PBL (plasma:brain level) study. In kind it is in vivo.
In a further data set the target is HNC4 (Homo sapiens, UniProt Q9Y3Q4). Description: Cardiac ion channel MPC selectivity panel. In kind it is cell-based.
In a further data set the target is Kv1.5 (Homo sapiens, UniProt P22460). Description: Cardiac ion channel MPC selectivity panel. In kind it is cell-based.
A further data set addresses Kv4.3 (Homo sapiens, UniProt Q9UK17). Description: Cardiac ion channel MPC selectivity panel. Format: cell-based.
The target of a further data set is KCNQ1 (Homo sapiens, UniProt P51787). Description: Cardiac ion channel MPC selectivity panel. In kind it is cell-based.
The target in another data set is hERG (Homo sapiens, UniProt Q12809). Description: Cardiac ion channel MPC selectivity panel. In kind it is cell-based.
The target in a further data set is Kir2.2 (Homo sapiens, UniProt Q14500). Description: Cardiac ion channel MPC selectivity panel. In kind it is cell-based.
Sequence of Kir2.2 (Q14500 whole entry): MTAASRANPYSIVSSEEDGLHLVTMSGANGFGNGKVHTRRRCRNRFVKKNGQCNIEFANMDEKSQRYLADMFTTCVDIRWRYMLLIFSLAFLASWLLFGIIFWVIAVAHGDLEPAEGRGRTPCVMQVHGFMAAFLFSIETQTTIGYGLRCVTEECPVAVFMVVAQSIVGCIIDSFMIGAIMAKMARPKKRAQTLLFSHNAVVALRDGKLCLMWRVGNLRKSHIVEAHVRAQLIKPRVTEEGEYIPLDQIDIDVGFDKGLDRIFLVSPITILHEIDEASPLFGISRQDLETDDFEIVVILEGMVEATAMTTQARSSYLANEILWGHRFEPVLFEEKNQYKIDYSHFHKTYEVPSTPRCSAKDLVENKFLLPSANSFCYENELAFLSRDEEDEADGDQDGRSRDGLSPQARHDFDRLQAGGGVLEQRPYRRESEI
Another data set has as its target Adrenergic α1D (Homo sapiens, UniProt P25100). As to the kind of experiment: Eurofins lead profiling screen (radioligand binding).
The target in the next data set is Adrenergic β1 (Homo sapiens, UniProt P08588). Described as above.
The target of a further data set is Androgen (Testosterone) (Homo sapiens, UniProt P10275). The data set is described as above.
The target of a further data set is Bradykinin B1 (Homo sapiens, UniProt P46663). The description is as above.
Sequence of Bradykinin B1 (P46663 whole entry): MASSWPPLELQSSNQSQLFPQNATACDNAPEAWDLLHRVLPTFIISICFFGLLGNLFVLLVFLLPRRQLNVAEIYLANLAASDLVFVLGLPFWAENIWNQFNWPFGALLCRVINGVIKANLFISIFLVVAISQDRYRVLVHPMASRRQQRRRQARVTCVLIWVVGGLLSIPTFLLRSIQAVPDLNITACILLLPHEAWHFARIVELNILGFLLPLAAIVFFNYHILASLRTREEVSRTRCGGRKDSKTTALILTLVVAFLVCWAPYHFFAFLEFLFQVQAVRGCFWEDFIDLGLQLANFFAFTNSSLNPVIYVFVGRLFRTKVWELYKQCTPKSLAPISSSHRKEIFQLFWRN
A further data set concerns the target Dopamine D2S (Homo sapiens, UniProt P14416). The data set is described as above.
The target in a further data set is Endothelin ETA (Homo sapiens, UniProt P25101). Described as above.
For a further data set, the target named is Endothelin ETB (Homo sapiens, UniProt P24530). The description is as above.
Data set [4] has as its target Epidermal Growth Factor (EGF) (Homo sapiens, UniProt P00533). The description is as above.
The next data set addresses GABAB1A (Homo sapiens, UniProt Q9UBS5). The description is as above.
In the next data set the test system is Glutamate, Kainate. The description is as above. More on the design: species or system Rat.
Another data set concerns the target Histamine H3 (Homo sapiens, UniProt Q9Y5N1). The description is as above.
Data set [5] addresses Leukotriene, Cysteinyl CysLT1 (Homo sapiens, UniProt Q9Y271). The description is as above.
Another data set has as its target Muscarinic M1 (Homo sapiens, UniProt P11229). Described as above.
The next data set deals with Muscarinic M2 (Homo sapiens, UniProt P08172). The description is as above.
Sequence of Muscarinic M2 (P08172 whole entry): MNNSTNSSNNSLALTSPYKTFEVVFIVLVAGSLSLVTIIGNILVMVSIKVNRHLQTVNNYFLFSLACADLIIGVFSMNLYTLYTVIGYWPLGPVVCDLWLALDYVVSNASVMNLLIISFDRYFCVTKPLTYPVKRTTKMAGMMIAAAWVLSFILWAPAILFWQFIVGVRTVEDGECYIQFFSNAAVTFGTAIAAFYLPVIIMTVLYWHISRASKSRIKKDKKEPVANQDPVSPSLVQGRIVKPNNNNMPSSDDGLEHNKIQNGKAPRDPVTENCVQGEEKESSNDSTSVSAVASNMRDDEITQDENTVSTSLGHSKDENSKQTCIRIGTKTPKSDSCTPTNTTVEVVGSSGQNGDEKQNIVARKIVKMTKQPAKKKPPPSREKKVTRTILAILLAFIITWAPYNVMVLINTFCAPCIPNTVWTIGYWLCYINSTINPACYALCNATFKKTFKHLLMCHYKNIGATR
In a further data set the test system is Nicotinic Acetylcholine. Described as above. More on the design: species or system Human.
Another data set deals with Opiate δ1 (OP1, DOP) (Homo sapiens, UniProt P41143). The description is as above.
In a further data set the target is hERG potassium channel (Homo sapiens, UniProt Q12809). The data set is described as above.
Sequence of hERG potassium channel (Q12809 whole entry): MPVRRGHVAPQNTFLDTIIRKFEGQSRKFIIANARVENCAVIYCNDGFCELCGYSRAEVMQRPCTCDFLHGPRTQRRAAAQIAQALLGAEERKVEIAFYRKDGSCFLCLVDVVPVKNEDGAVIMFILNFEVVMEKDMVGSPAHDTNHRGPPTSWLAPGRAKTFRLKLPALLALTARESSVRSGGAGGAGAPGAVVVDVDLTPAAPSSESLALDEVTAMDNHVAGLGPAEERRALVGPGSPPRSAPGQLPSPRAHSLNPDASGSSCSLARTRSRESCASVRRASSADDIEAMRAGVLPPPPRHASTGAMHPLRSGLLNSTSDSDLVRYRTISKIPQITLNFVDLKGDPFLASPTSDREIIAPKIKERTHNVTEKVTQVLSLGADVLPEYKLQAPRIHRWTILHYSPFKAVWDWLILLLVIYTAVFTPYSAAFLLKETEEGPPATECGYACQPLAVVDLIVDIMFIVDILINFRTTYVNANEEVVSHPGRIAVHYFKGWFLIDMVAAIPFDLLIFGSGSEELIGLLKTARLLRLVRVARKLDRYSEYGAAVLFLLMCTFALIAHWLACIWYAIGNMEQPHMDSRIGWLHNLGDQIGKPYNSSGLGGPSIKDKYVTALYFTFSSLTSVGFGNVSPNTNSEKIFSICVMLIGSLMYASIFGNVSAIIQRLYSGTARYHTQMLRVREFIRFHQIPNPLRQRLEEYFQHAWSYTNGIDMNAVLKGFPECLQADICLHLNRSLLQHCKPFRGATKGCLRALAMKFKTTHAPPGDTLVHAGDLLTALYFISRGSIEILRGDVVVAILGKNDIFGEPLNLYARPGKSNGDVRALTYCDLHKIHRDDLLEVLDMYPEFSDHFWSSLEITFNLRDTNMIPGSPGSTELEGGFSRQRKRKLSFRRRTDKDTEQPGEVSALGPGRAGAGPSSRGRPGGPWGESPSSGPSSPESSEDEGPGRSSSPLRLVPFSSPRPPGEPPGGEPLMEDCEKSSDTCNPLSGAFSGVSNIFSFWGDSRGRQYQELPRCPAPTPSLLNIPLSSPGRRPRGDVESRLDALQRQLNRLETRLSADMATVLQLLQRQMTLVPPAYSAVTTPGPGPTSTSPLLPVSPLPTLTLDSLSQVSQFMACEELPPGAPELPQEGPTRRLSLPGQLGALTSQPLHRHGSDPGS
The next data set has as its system Purinergic P2X. The data set is described as above. More on the design: species or system Rat.
A further data set deals with Rolipram. The description is as above. More on the design: species or system Rat.
A further data set has as its target Sigma σ1 (Homo sapiens, UniProt Q99720). The data set is described as above.

Bounds are passed on as bounds.

Sequence of Dopamine D2S (P14416 1-414 isoform P14416-2): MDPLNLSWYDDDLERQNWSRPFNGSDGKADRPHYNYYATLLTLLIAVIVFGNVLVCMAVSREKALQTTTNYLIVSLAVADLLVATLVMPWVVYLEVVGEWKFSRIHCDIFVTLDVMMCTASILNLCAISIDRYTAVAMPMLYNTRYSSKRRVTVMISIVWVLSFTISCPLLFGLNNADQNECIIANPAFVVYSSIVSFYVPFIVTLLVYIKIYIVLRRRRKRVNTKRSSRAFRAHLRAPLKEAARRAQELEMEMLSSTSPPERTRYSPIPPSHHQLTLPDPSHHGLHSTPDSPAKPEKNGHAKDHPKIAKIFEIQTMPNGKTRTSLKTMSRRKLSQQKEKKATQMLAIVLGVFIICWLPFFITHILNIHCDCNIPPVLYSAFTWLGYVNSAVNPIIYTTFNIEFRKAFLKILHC
Sequence of Kv4.3 (Q9UK17 whole entry): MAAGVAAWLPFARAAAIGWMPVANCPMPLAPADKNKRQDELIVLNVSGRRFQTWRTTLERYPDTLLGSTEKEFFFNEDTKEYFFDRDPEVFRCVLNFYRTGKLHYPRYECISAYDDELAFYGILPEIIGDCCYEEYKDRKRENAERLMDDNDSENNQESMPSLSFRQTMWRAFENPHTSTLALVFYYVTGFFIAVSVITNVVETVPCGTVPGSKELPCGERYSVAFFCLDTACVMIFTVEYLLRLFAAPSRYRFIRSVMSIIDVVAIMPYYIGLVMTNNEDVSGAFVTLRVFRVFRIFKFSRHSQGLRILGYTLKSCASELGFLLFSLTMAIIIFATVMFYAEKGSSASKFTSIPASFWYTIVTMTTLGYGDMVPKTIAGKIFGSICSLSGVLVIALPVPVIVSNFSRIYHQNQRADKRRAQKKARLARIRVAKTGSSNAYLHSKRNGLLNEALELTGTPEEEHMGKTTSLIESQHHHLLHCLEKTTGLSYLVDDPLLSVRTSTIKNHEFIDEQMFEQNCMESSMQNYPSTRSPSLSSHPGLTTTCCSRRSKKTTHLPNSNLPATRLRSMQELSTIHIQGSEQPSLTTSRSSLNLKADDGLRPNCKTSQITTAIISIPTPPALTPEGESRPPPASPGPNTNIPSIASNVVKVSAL
Sequence of Leukotriene, Cysteinyl CysLT1 (Q9Y271 whole entry): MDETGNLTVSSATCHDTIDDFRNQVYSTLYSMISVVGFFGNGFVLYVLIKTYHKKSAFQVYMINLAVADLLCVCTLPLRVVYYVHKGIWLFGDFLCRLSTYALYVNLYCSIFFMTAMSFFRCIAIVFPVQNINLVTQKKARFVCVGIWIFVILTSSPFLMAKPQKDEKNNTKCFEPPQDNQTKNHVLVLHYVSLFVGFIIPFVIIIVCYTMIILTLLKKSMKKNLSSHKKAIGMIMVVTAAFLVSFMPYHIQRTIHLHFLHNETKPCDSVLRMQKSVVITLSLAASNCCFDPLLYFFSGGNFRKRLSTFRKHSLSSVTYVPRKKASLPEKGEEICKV
Sequence of Adrenergic α1D (P25100 whole entry): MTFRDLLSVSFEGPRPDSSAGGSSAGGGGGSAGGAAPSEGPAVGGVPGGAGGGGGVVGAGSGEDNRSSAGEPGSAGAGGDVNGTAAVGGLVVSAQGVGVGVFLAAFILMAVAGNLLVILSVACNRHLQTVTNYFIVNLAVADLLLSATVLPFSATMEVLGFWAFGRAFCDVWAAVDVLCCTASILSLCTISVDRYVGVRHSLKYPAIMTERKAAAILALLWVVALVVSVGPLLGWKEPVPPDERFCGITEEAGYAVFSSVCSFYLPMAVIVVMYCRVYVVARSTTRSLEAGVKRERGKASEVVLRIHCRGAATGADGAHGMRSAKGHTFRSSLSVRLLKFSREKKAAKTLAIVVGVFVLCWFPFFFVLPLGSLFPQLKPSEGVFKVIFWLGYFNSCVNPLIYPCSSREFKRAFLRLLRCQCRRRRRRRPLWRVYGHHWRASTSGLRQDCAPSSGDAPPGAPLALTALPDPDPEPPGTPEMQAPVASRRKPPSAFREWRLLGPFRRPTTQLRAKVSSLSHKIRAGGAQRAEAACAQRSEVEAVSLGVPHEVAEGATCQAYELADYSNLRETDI
Sequence of Histamine H3 (Q9Y5N1 whole entry): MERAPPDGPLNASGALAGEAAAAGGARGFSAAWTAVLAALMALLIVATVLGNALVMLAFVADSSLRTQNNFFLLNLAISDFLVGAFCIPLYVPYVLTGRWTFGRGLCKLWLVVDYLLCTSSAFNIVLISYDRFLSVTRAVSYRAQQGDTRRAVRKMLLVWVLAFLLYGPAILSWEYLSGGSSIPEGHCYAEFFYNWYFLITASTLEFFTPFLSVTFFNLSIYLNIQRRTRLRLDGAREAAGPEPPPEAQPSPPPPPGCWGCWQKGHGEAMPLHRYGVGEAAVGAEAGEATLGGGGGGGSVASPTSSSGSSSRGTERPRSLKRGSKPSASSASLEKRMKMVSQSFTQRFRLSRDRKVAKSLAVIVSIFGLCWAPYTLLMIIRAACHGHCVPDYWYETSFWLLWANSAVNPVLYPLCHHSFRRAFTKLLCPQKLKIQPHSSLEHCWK

Regarding `Cc1cc(C#Cc2ccc(F)cc2)cnc1NC(=O)c1cc(NC(=O)OC(C)(C)C)ccc1Cl` [Compound 14c], in data set [1], the fraction unbound at 6 h, 5 µM is 0.006. In addition, in the data set “Aqueous solubility”, the solubility is < 5 µM. Also, in [2] (iv, in vivo rat plasma clearance, read-out: rat CLp), the clearance at 24 h turned out to be 21.2 mL/min/kg. This molecule gave a half-life at 24 h in data set [2] (plasma, rat IV:PBL PK cassette) of 6.78 h. For the same molecule, in data set [2] (plasma, rat IV:PBL PK cassette, read-out: volume of distribution), the Vd at 24 h was determined as 6.7 L/kg. Besides, the Tmax in [3] (CD-1, brain, mouse, 10 mg/kg IP) was determined as 4 h. Also, in data set [3] (CD-1 male mouse, 10 mg/kg PO), the “Cmax total brain concentration” value was 252 nM and the “brain AUC” value was 2269 nM·h. Moreover, the Tmax in data set [3] (brain, CD-1 male mouse, 10 mg/kg PO) came to 4 h. Besides, in data set [3] (mouse, 10 mg/kg IP), the “Cmax total brain exposure” value turned out to be 888 nM and the “brain AUC” value was 12,261 h*nM. The same molecule registered a Cmax unbound brain in data set [3] (mouse, 10 mg/kg IP, based on mouse brain homogenate binding) of 5.3 nM. Besides, the “% at 10 μM, HNC4” value at HNC4 was < 50%. The “% at 10 μM, Kv1.5” value on Kv1.5 was < 50%. Also, at Kv4.3, the “% at 10 μM, Kv4.3” value is < 50%. On KCNQ1, the “% at 10 μM, KCNQ1” value is given as < 50%. Also, the “% at 10 μM, hERG” value on hERG is < 50%. For the same molecule, the “% at 10 μM, Kir2.2” value on Kir2.2 is 52%.
For the molecule `O=C(NCc1ccc(OC(F)(F)F)cc1F)c1ccc2ncnn2c1` [ONO-2920632], the inhibition at 10 µM is 26% on Adrenergic α1D; -1% at Adrenergic β1; 7% on Androgen (Testosterone); 27% at Bradykinin B1; -1% at Dopamine D2S; -11% at Endothelin ETA. The inhibition at 10 µM on Endothelin ETB was -6%; in data set [4] it was -2%; at GABAB1A it was 0%; at Histamine H3 it was 4%; in data set [5] it was -7%; on Muscarinic M1, 4%. The inhibition at 10 µM was 0% at Muscarinic M2; -8% on Opiate δ1 (OP1, DOP); 39% at hERG potassium channel; 30% at Sigma σ1. Further, the “% Inhibition at 10 µM” value in the data set with Glutamate, Kainate is listed as 3%; in the data set on Nicotinic Acetylcholine, -10%; in the data set with Purinergic P2X, 1%; with Rolipram, 5%.

Source of the values: PMC12067145 (ACS Medicinal Chemistry Letters, 2025).
